Assay results as given in ChEMBL document CHEMBL5543075, “Phenoxytacrine derivatives: Low-toxicity neuroprotectants exerting affinity to ifenprodil-binding site and cholinesterase inhibition” (Eur J Med Chem, 2024).
Active and inactive are the calls of the source. No cut-off for these calls is given here.

Experiments:
[1] = Cytotoxicity against CHO-K1 cells incubated for 24 hrs by MTT assay; assay type: toxicity, cell-based, Cricetulus griseus; settings: Chinese hamster
Acetylcholinesterase = Acetylcholinesterase (Homo sapiens, UniProt P22303); assay: Inhibition of human AChE by spectrophotometric Ellman's method
Cholinesterase = Cholinesterase (Homo sapiens, UniProt P06276); assay: Inhibition of human BChE by spectrophotometric Ellman's method
[2] = target: T1, Glutamate NMDA receptor; GRIN1/GRIN2B (Homo sapiens, UniProt Q05586+Q13224); assay: Inhibition of recombinant human GluN1/GluN2B receptor expressed in HEK293 cells assessed as reduction in glutamate induced current at 1 uM at -60 mV holding potential by electrophysiology assay relative to control; assay type: cell-based
Rattus norvegicus [3] = assay: Antipsychotic activity in Wistar rat assessed as effect on locomotor activity at 0.2 mg/kg, ip measured after 10 mins by open field test; assay type: functional, organism-based
Rattus norvegicus [4] = assay: Antipsychotic activity in Wistar rat assessed as effect on pre-pulse inhibition of acoustic startle response at 0.3 mg/kg, ip measured after 10 mins by pre-pulse inhibition test; assay type: functional, organism-based
[5] = target: Glutamate NMDA receptor; GRIN1/GRIN2A (Homo sapiens, UniProt Q05586+Q12879); assay: Inhibition of recombinant wild type human GluN1/GluN2A receptor expressed in HEK293 cells assessed as reduction in glutamate induced current at -60 mV holding potential by electrophysiology assay; assay type: cell-based
[6] = target: T1, Glutamate NMDA receptor; GRIN1/GRIN2B; assay: Inhibition of recombinant wild type human GluN1/GluN2B receptor expressed in HEK293 cells assessed as reduction in glutamate induced current at -60 mV holding potential by electrophysiology assay; assay type: cell-based
[7] = Inhibition of recombinant human GluN1 deltaATD/GluN2B receptor expressed in HEK293 cells assessed as reduction in glutamate induced current at -60 mV holding potential by electrophysiology assay; assay type: cell-based
[8] = Toxicity in Wistar rat assessed as no observed adverse effect level (NOAEL) at 10 mg/kg, ip; assay type: organism-based; settings: in vivo
[9] = Toxicity in Wistar rat assessed as no observed adverse effect level (NOAEL) at 20 mg/kg, ip measured after 10 to 15 mins; assay type: organism-based; settings: in vivo, time 10-15 min
Rattus norvegicus [10] = assay: Antipsychotic activity in Wistar rat assessed as effect on locomotor activity at 2 mg/kg, ip measured after 10 mins by open field test; assay type: functional, organism-based
Rattus norvegicus [11] = assay: Antipsychotic activity in Wistar rat assessed as effect on pre-pulse inhibition of acoustic startle response at 2 mg/kg, ip measured after 10 mins by pre-pulse inhibition test; assay type: functional, organism-based
Rattus norvegicus [12] = assay: Antialzheimer activity against scopolamine-induced cognitive impairment in Wistar rat assessed as decrease in latency to reach platform at 2 mg/kg, ip measured upto 4 days by morris water maze test; assay type: functional, organism-based; settings: time <= 4.0 day
Hippocampal neurone = assay: Neuroprotective activity against NMDA-induced cell injury in rat Hippocampal neuron cells assessed as decrease in damage score at 30 uM measured after 24 hrs by FJB staining based microscopy; assay type: functional
in vitro [13] = settings: human, liver microsomes
Description: Metabolic stability in human liver microsomes assessed as half life at 3 uM measured upto 45 min in presence of NADPH regenerating system by LC-MS analysis

in vitro [14] = settings: human, liver microsomes; remark: listed apart in the source
Description: Metabolic stability in human liver microsomes assessed as intrinsic clearance at 3 uM measured upto 45 min in presence of NADPH regenerating system by LC-MS analysis

Rattus norvegicus [15] = assay: Antialzheimer activity against scopolamine-induced cognitive impairment in Wistar rat assessed as decrease in mean distance from platform at 2 mg/kg, ip measured upto 4 days by morris water maze test (reference value: 51.7 +/-1.5 cm); assay type: functional; settings: time <= 4 day
Rattus norvegicus [16] = assay: Antialzheimer activity against scopolamine-induced cognitive impairment in Wistar rat assessed as increase in number of platform crossing at 2 mg/kg, ip measured upto 4 days by morris water maze test; assay type: functional, organism-based; settings: time <= 4.0 day

Acetylcholinesterase, sequence (P22303 whole entry): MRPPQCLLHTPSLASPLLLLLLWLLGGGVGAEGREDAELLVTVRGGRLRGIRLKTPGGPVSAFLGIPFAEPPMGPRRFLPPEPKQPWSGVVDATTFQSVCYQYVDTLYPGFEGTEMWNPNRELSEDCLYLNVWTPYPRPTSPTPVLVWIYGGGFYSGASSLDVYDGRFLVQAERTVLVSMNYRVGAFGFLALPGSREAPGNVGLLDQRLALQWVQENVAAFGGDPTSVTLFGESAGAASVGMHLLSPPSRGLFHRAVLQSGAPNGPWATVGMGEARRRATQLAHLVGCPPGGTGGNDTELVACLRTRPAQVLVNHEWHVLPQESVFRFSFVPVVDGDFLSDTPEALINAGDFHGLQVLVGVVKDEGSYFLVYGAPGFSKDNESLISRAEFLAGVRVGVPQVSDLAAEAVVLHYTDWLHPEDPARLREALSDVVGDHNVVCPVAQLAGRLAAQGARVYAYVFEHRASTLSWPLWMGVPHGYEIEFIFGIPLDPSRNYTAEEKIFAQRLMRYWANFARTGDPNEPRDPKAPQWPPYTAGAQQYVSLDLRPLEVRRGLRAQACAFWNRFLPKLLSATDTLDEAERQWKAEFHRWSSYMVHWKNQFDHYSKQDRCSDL
Cholinesterase, sequence (P06276 whole entry): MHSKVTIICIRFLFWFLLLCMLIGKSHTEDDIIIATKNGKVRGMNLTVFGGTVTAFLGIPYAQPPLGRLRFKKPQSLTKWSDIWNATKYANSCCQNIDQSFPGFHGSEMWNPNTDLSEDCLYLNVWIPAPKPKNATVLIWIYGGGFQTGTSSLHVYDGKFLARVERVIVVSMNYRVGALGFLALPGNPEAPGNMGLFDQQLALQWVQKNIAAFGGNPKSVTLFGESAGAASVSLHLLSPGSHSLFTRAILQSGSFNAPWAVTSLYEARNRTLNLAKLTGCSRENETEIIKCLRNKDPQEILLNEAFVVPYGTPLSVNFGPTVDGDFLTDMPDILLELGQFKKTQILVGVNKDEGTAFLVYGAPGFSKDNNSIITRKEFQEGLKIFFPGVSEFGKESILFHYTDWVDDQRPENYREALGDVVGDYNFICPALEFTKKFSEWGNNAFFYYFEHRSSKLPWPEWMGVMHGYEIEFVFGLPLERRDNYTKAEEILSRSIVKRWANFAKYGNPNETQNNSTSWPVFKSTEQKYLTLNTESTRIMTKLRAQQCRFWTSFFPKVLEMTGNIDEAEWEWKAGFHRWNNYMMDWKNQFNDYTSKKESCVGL
Glutamate NMDA receptor; GRIN1/GRIN2A, sequence (Q12879 whole entry, other chains not shown): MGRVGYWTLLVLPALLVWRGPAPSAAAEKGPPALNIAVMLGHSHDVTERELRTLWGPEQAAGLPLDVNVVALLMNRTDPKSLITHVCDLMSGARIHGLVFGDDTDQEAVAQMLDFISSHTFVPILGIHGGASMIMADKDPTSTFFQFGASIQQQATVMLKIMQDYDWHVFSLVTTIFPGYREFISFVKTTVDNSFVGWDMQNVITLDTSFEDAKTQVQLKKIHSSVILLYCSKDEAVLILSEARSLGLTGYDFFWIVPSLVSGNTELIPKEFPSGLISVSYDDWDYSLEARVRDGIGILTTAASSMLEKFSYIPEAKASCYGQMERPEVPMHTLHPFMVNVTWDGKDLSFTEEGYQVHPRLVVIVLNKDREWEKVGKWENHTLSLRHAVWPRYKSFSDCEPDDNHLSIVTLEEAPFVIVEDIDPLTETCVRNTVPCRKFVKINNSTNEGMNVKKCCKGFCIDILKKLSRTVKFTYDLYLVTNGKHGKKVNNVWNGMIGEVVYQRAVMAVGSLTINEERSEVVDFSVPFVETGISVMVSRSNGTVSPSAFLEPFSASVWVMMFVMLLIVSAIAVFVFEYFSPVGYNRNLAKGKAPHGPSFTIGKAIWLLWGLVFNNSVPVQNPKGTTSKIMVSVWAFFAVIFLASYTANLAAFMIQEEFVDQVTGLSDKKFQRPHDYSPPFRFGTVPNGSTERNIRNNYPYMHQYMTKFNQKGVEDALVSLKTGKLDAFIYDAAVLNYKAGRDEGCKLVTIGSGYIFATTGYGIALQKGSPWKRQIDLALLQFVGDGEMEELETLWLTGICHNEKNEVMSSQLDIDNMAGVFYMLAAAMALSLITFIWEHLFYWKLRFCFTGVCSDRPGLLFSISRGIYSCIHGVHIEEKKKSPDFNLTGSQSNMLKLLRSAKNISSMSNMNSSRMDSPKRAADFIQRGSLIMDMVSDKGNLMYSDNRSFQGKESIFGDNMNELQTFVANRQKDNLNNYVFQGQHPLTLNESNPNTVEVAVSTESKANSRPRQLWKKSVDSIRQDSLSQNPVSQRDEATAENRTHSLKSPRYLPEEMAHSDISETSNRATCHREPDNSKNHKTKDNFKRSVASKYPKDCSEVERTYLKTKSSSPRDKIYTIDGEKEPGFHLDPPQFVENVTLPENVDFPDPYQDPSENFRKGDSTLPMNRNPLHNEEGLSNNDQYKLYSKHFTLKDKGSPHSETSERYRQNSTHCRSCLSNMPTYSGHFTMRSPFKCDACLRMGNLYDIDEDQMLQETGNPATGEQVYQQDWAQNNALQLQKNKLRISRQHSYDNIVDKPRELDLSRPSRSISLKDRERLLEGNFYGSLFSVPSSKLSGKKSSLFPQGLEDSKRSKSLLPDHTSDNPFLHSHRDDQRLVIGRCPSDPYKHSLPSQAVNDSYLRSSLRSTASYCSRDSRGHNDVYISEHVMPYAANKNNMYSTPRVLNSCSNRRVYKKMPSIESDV

Row | SMILES | IC50 at 24 h [1] [µM] | IC50 (Acetylcholinesterase) [µM] | IC50 (Cholinesterase) [µM] | inhibition [2] [%] | other results
1 | COc1ccc(Oc2ccc3nc4c(c(N)c3c2)CCC4)cc1 | 81 | 4.24 | 14.5 | 22.7 | –
2 | COc1ccc(Oc2ccc3nc4c(c(N)c3c2)CCCC4)cc1 | 26 | 2.9 | 7.26 | 33.2 | –
3 | Cc1ccccc1Oc1ccc2nc3c(c(N)c2c1)CCCC3 | 25 | 3.78 | 4.15 | 19.3 | –
4 | Cc1ccc(Oc2ccc3nc4c(c(N)c3c2)CCCCC4)cc1 | 140 | 3.79 | 2.78 | 11.9 | –
5 | CC(=O)c1ccc(Oc2ccc3nc4c(c(N)c3c2)CCC4)cc1 | 69 | 5.76 | 16.5 | 9.5 | –
6 | Cc1cccc(Oc2ccc3nc4c(c(N)c3c2)CCC4)c1 | 34 | 5.28 | 2.81 | 18.1 | –
7 | Nc1c2c(nc3ccc(Oc4ccccc4)cc13)CCCCC2 | 38 | 5.36 | 1.4 | 34.9 | –
8 | COc1cccc(Oc2ccc3nc4c(c(N)c3c2)CCCCC4)c1 | 21 | 4.25 | 2.62 | 7.1 | –
9 | COc1cccc(Oc2ccc3nc4c(c(N)c3c2)CCC4)c1 | 85 | 5.25 | 7.96 | 16 | –
10 | C[C@]12N[C@H](Cc3ccccc31)c1ccccc12 | – | – | – | – | Activity (Rattus norvegicus [3]): Active; Activity (Rattus norvegicus [4]): Active
11 | Cc1ccc(Oc2ccc3nc4c(c(N)c3c2)CCC4)cc1 | 76 | 8.36 | 7.34 | 18.7 | –
12 | Nc1c2c(nc3ccc(Oc4ccc(Cl)cc4)cc13)CCC2 | 28 | 5.07 | 3.6 | 8.7 | –
13 | Nc1c2c(nc3ccc(Oc4ccccc4)cc13)CCC2 | 55 | 6.42 | 2.93 | 30.3 | –
14 | Cc1ccc(Oc2ccc3nc4c(c(N)c3c2)CCCC4)cc1 | 20 | 3.29 | 1.95 | 18 | –
15 | COc1ccccc1Oc1ccc2nc3c(c(N)c2c1)CCCCC3 | 74 | 9.62 | 5.48 | 57.6 | –
16 | CC(C)(C)c1ccc(Oc2ccc3nc4c(c(N)c3c2)CCCCC4)cc1 | 9 | 71.6 | 2.51 | 10.1 | –
17 | Cc1cccc(Oc2ccc3nc4c(c(N)c3c2)CCCC4)c1 | 20 | 9.19 | 3.66 | 21.2 | –
18 | CC(C)(C)c1ccc(Oc2ccc3nc4c(c(N)c3c2)CCCC4)cc1 | 5.1 | 1.96 | 6.61 | 16 | –
19 | Cc1cccc(Oc2ccc3nc4c(c(N)c3c2)CCCCC4)c1 | 13 | 12.3 | 2.74 | 14.8 | –
20 | COc1ccc(Oc2ccc3nc4c(c(N)c3c2)CCCCC4)cc1 | 28 | 3.63 | 2.74 | 29.6 | –
21 | CC(C)(C)c1ccc(Oc2ccc3nc4c(c(N)c3c2)CCC4)cc1 | 11 | 2.78 | 3.11 | 6.7 | –
22 | Cc1cc(C)cc(Oc2ccc3nc4c(c(N)c3c2)CCC4)c1 | 39 | 3.72 | 5.48 | 9.6 | –
23 | Nc1c2c(nc3ccc(Oc4ccc(Cl)cc4)cc13)CCCCC2 | 90 | 4.22 | 1.85 | 12 | –
24 | Cc1cc(C)cc(Oc2ccc3nc4c(c(N)c3c2)CCCCC4)c1 | 30 | 0.99 | 5.27 | 7.8 | –
25 | COc1ccccc1Oc1ccc2nc3c(c(N)c2c1)CCC3.Cl | 68 | 8.52 | 5.48 | 35 | IC50 [5]: 5.1 µM; IC50 [6]: 2.4 µM; IC50 [7]: 5.2 µM; Activity [8]: Non-Toxic; Activity [9]: Toxic; Activity (Rattus norvegicus [10]): inactive; Activity (Rattus norvegicus [11]): inactive; Activity (Rattus norvegicus [12]): Active; Activity (Hippocampal neurone): Active; half-life at 0.75 h, 3 µM (in vitro [13]): 1.16 h; microsomal CLint at 0.75 h, 3 µM (in vitro [14]): 20 µL/min/mg
26 | Cc1ccccc1Oc1ccc2nc3c(c(N)c2c1)CCCCC3 | 26 | 5.8 | 4.17 | 8.8 | –
27 | Nc1c2c(nc3ccc(Oc4ccc(Cl)cc4)cc13)CCCC2 | 12 | 2.92 | 3.32 | 14.2 | –
28 | COc1cccc(Oc2ccc3nc4c(c(N)c3c2)CCCC4)c1 | 27 | 2.64 | 2.76 | 14.7 | –
29 | Cc1ccccc1Oc1ccc2nc3c(c(N)c2c1)CCC3.Cl | 78 | 28.2 | – | 16.6 | Activity (Rattus norvegicus [15]): 59.5 cm; Activity (Rattus norvegicus [16]): Active
30 | Cc1cc(C)cc(Oc2ccc3nc4c(c(N)c3c2)CCCC4)c1 | 13 | 1.62 | 3.88 | 8.2 | –
